Laboratory results as given in the supplement of paper PMC10331698.
± gives the standard deviation of the averaged measurements.

Key:
Test in all cases: level (log10 ratio to DMSO vehicle control); higher = higher biomarker level / cell amount than vehicle control
Conditions in all cases: in DMSO
[1] = compound: O=S(=O)(O)C(F)(F)C(F)(F)C(F)(F)C(F)(F)C(F)(F)C(F)(F)F [Perfluorohexanesulfonic acid]
Method: (§1)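 BioMAP Diversity Plus panel of 12 human primary cell co-culture systems (3C, 4H, LPS, SAg, BT, BF4T, BE3C, CASM3C, HDF3CGF, KF3CT, MyoF, Mphg). Compounds were added 1 h before stimulation and left for 24 h (MyoF 48 h; BT 72 h for soluble read-outs or 6 d for IgG). Biomarkers were read by ELISA, cytotoxicity by SRB, PBMC viability and proliferation by Alamar Blue. Each well value was divided by the mean of 8 DMSO control wells on the same plate and log10 transformed; duplicate blinded samples were tested at 4 concentrations.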

[2] = compound: OCCC(F)(F)C(F)(F)C(F)(F)C(F)(F)C(F)(F)C(F)(F)F [6:2 Fluorotelomer alcohol]
Method: as §1

[3] = compound: O=C(O)C(F)(F)OC(F)(F)C(F)(F)OC(F)(F)F [Perfluoro-3,6-dioxaheptanoic acid]
Method: as §1

[4] = compound: C=CC(=O)OCC(F)(F)C(F)(F)C(F)(F)C(F)(F)C(F)(F)C(F)(F)C(F)(F)F [1H,1H-Perfluorooctyl acrylate]
Method: as §1

[5] = compound: O=C(O)C(F)(F)C(F)(F)C(F)(F)OC(F)(C(F)(F)F)C(F)(F)F [Perfluoro-4-isopropoxybutanoic acid]
Method: as §1

[6] = compound: NCC(F)(F)C(F)(F)C(F)(F)C(F)(F)C(F)(F)C(F)(F)C(F)(F)F [1H,1H-Perfluorooctylamine]
Method: as §1

[7] = compound: O=C(O)C(F)(F)C(F)(F)OC(F)(F)F [Perfluoro-3-methoxypropanoic acid]
Method: as §1

| Test System | level (log10) ([1]; 6700 nM) | level (log10) ([1]; 20000 nM) | level (log10) ([1]; 60000 nM) | level (log10) ([2]; 6700 nM) | level (log10) ([2]; 20000 nM) | level (log10) ([3]; 6700 nM) | level (log10) ([3]; 20000 nM) | level (log10) ([3]; 60000 nM) | level (log10) ([4]; 6700 nM) | level (log10) ([4]; 20000 nM) | level (log10) ([4]; 60000 nM) | level (log10) ([5]; 6700 nM) | level (log10) ([5]; 20000 nM) | level (log10) ([5]; 60000 nM) | level (log10) ([6]; 6700 nM) | level (log10) ([6]; 20000 nM) | level (log10) ([6]; 60000 nM) | level (log10) ([7]; 6700 nM) | level (log10) ([7]; 20000 nM) | level (log10) ([7]; 60000 nM) |
| --- | --- | --- | --- | --- | --- | --- | --- | --- | --- | --- | --- | --- | --- | --- | --- | --- | --- | --- | --- | --- |
| LPS:CD142/Tissue Factor | 0.0055 ± 0.023 | 0.001 ± 0.0028 | 0 ± 0.028 | 0.0285 ± 0.026 | -0.007 ± 0.013 | -0.0335 ± 0.011 | 0.0145 ± 0.023 | 0.009 ± 0.0028 | 0.0425 ± 0.018 | 0.051 ± 0.014 | 0.0525 ± 0.016 | 0.019 ± 0.033 | 0.0165 ± 0.011 | -0.016 ± 0.1 | 0.02 ± 0.095 | 0.005 ± 0.054 | -0.0475 ± 0.073 | 0.0095 ± 0.013 | 0.032 ± 0.021 | 0.0125 ± 0.073 |
| LPS:CD40 | 0.004 ± 0.018 | 0.011 ± 0.023 | -0.0045 ± 0.054 | -0.0015 ± 0.03 | -0.0315 ± 0.015 | -0.0055 ± 0.012 | -0.0295 ± 0.039 | -0.024 ± 0.038 | 0.0745 ± 0.063 | 0.039 ± 0.071 | -0.0125 ± 0.097 | 0.012 ± 0.041 | -0.011 ± 0.018 | -0.0405 ± 0.023 | -0.0195 ± 0.019 | -0.0095 ± 0.023 | -0.022 ± 0.04 | 0.0045 ± 0.013 | 0.0095 ± 0.015 | 0.0135 ± 0.039 |
| BE3C:CD54/ICAM-1 | 0 ± 0.027 | 0.0025 ± 0.016 | 0.008 ± 0.013 | 0.0035 ± 0.018 | 0.001 ± 0.016 | -0.032 ± 0.0042 | -0.0125 ± 0.0021 | -0.0325 ± 0.015 | 0.0055 ± 0.042 | -0.011 ± 0.014 | 0.003 ± 0.014 | -0.0095 ± 0.022 | -0.014 ± 0.024 | -0.0245 ± 0.005 | 0.009 ± 0.0099 | -0.0045 ± 0.012 | 0.017 ± 0.034 | 0.003 ± 0.013 | -0.0035 ± 0.0021 | 0.0065 ± 0.011 |
| 3C:Proliferation | -0.042 ± 0.034 | -0.0525 ± 0.054 | -0.0305 ± 0.022 | -0.0325 ± 0.066 | -0.015 ± 0.086 | -0.0305 ± 0.025 | -0.031 ± 0.05 | -0.0205 ± 0.0064 | -0.015 ± 0.017 | -0.0805 ± 0.032 | -0.214 ± 0.033 | -0.0195 ± 0.05 | 0.002 ± 0.098 | -0.0325 ± 0.046 | 0.004 ± 0.05 | 0.004 ± 0.047 | -0.0485 ± 0.063 | -0.0295 ± 0.056 | -0.023 ± 0.03 | -0.0135 ± 0.037 |
| BF4T:CD54/ICAM-1 | 0.0045 ± 0.00071 | -0.005 ± 0.011 | -0.022 ± 0.0099 | -0.004 ± 0.0014 | -0.0025 ± 0.011 | 0.0115 ± 0.005 | -0.009 ± 0.0028 | -0.012 ± 0.0071 | -0.0105 ± 0.005 | -0.0165 ± 0.0035 | -0.0295 ± 0.0092 | -0.0095 ± 0.021 | -0.007 ± 0.0057 | -0.0115 ± 0.013 | 0.0025 ± 0.0021 | -0.0045 ± 0.00071 | 0.0075 ± 0.0021 | 0.0165 ± 0.0064 | -0.0085 ± 0.011 | -0.0015 ± 0.0035 |
| LPS:CD69 | -0.0125 ± 0.049 | -0.0035 ± 0.047 | -0.036 ± 0.052 | -0.006 ± 0.04 | 0 | -0.0125 ± 0.0064 | -0.044 ± 0.035 | -0.0165 ± 0.019 | 0.0025 ± 0.0021 | -0.0095 ± 0.0064 | -0.0305 ± 0.005 | -0.0005 ± 0.023 | -0.006 ± 0.0042 | -0.0145 ± 0.046 | -0.045 ± 0.017 | -0.0255 ± 0.036 | 0.002 ± 0.0071 | -0.0065 ± 0.013 | -0.02 ± 0.013 | 0.013 ± 0.025 |
| SAg:PBMC Cytotoxicity | -0.025 ± 0.0042 | -0.0175 ± 0.026 | 0.0085 ± 0.012 | 0.0025 ± 0.005 | 0.023 ± 0.028 | -0.0035 ± 0.029 | 0.002 ± 0.0042 | 0.013 ± 0.0028 | -0.004 ± 0.017 | 0.0125 ± 0.053 | -0.0535 ± 0.071 | 0.0225 ± 0.026 | 0.0245 ± 0.028 | 0.0425 ± 0.022 | 0.032 ± 0.025 | 0.018 ± 0.013 | -0.129 ± 0.27 | 0.034 ± 0.014 | 0.016 ± 0.013 | -0.0115 ± 0.011 |
